Assay results as given in US8426359B2, “Inhibitors of serine proteases, particularly HCV NS3-NS4A protease” (Vertex Pharmaceuticals Incorporated, priority 2003, dated 2013).
Read-outs that look alike come from different tables or passages of the source.

Assays:
[1] = system: Cells containing hepatitis C virus (HCV) replicon; experiment: HCV replicon cell assay; assay type: cell-based
Procedure: HCV Replicon Cell Assay Protocol:
Cells containing hepatitis C virus (HCV) replicon were maintained in DMEM containing 10% fetal bovine serum (FBS), 0.25 mg per ml of G418, with appropriate supplements (media A).
On day 1, replicon cell monolayer was treated with a trypsin: EDTA mixture, removed, and then media A was diluted into a final concentration of 100,000 cells per ml wit. 10,000 cells in 100 ul were plated into each well of a 96-well tissue culture plate, and cultured overnight in a tissue culture incubator at 37° C.
On day 2, compounds (in 100% DMSO) were serially diluted into DMEM containing 2% FBS, 0.5% DMSO, with appropriate supplements (media B). The final concentration of DMSO was maintained at 0.5% throughout the dilution series.
Media on the replicon cell monolayer was removed, and then media B containing various concentrations of compounds was added. Media B without any compound was added to other wells as no compound controls.
Cells were incubated with compound or 0.5% DMSO in media B for 48 hours in a tissue culture incubator at 37° C. At the end of the 48-hour incubation, the media was removed, and the replicon cell monolayer was washed once with PBS and stored at −80° C. prior to RNA extraction.
Culture plates with treated replicon cell monolayers were thawed, and a fixed amount of another RNA virus, such as Bovine Viral Diarrhea Virus (BVDV) was added to cells in each well. RNA extraction reagents (such as reagents from RNeasy kits) were added to the cells immediately to avoid degradation of RNA. Total RNA was extracted according the instruction of manufacturer with modification to improve extraction efficiency and consistency. Finally, total cellular RNA, including HCV replicon RNA, was eluted and stored at −80° C. until further processing.
A Taqman real-time RT-PCR quantification assay was set up with two sets of specific primers and probe. One was for HCV and the other was for BVDV. Total RNA extractants from treated HCV replicon cells was added to the PCR reactions for quantification of both HCV and BVDV RNA in the same PCR well. Experimental failure was flagged and rejected based on the level of BVDV RNA in each well. The level of HCV RNA in each well was calculated according to a standard curve run in the same PCR plate. The percentage of inhibition or decrease of HCV RNA level due to compound treatment was calculated using the DMSO or no compound control as 0% of inhibition. The IC50 (concentration at which 50% inhibition of HCV RNA level is observed) was calculated from the titration curve of any given compound.

HCV NS3-NS4A protease = target: T1, HCV NS3-NS4A protease (Hepatitis C virus genotype 1a, UniProt P27958); experiment: HCV enzyme assay (HPLC microbore separation of 5AB substrate and products); assay type: biochemical
T1 construct: The buffer, KK4A, DTT, and tNS3 were combined
T1 sequence (P27958 1027-1208): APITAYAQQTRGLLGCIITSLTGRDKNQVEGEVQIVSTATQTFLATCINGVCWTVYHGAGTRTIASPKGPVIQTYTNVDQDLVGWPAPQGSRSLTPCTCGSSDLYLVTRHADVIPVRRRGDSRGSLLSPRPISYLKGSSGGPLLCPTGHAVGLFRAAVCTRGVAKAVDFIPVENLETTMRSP
Procedure: HCV Enzyme Assay Protocol
HPLC Microbore Method for Separation of 5AB Substrate and Products
• NH2-Glu-Asp-Val-Val-(alpha)Abu-Cys-Ser-Met-Ser-Tyr-COOH
A stock solution of 20 mM 5AB (or concentration of your choice) was made in DMSO w/0.2M DTT. This was stored in aliquots at −20 C.
Buffer: 50 mM HEPES, pH 7.8; 20% glycerol; 100 mM NaCl
Total assay volume was 100 μL
The buffer, KK4A, DTT, and tNS3 were combined; distributed 78 μL each into wells of 96 well plate. This was incubated at 30 C for ˜5-10 min.
2.5 μL of appropriate concentration of test compound was dissolved in DMSO (DMSO only for control) and added to each well. This was incubated at room temperature for 15 min.
Incubated for 20 min at 30 C.
Terminated reaction by addition of 25 μL of 10% TFA
Transferred 120 μL aliquots to HPLC vials
Separated SMSY product from substrate and KK4A by the following method:
Microbore Separation Method:
Instrumentation: Agilent 1100
• Degasser G1322A • Binary pump G1312A • Autosampler G1313A • Column thermostated chamber G1316A • Diode array detector G1315A Column: • Phenomenex Jupiter; 5 micron C18; 300 angstroms; 150×2 mm; P/O 00F-4053-B0 • Column thermostat: 40 C • Injection volume: 100 μL • Solvent A=HPLC grade water+0.1% TFA • Solvent B=HPLC grade acetonitrile+0.1% TFA
• Stop time: 17 min • Post-run time: 10 min.

[2] = 50% inhibition of HCV RNA level, 48-hour incubation, Taqman real-time RT-PCR, read-out: IC50

SMILES | IC50 ([1]; 48 h) [nM] | Ki (HCV NS3-NS4A protease; 25 nM tNS3, 25 μM KK4A, 25 μM 5AB substrate, 20 min at 30 C, read-out: Ki) [nM] | IC50 [1, 2] [nM] | Ki (HCV NS3-NS4A protease) [nM]
CCC[C@H](NC(=O)[C@@H]1CC2CCCCC2N1C(=O)[C@@H](NC(=O)[C@@H](NC(=O)C(=O)Nc1ccccc1)C1CCCCC1)C(C)(C)C)C(=O)C(=O)NC1CC1 (stereo partly drawn) [Compound 1] | 250 to 1000 | 100 to 250 |  | 
CCC[C@H](NC(=O)[C@@H]1C[C@@H]2CCCC[C@@H]2N1C(=O)[C@@H](NC(=O)[C@@H](NC(=O)C(=O)NCc1ccccc1)C1CCCCC1)C(C)(C)C)C(=O)C(=O)NC1CC1 [Compound 2] |  |  | 250 to 1000 | 100 to 250
CCC[C@H](NC(=O)[C@@H]1C[C@@H]2CCCC[C@@H]2N1C(=O)[C@@H](NC(=O)[C@@H](NC(=O)C(=O)NCC1CCCCC1)C1CCCCC1)C(C)(C)C)C(=O)C(=O)NC1CC1 [Compound 3] |  |  | 250 to 1000 | 100 to 250
CCC[C@H](NC(=O)[C@@H]1C[C@@H]2CCCC[C@@H]2N1C(=O)[C@@H](NC(=O)[C@@H](NC(=O)C(=O)NC1CC1)C1CCCCC1)C(C)(C)C)C(=O)C(=O)NC1CC1 [Compound 4] |  |  | 250 to 1000 | 100 to 250
CCC[C@H](NC(=O)[C@@H]1C[C@@H]2CCCC[C@@H]2N1C(=O)[C@@H](NC(=O)[C@@H](NC(=O)C(=O)NC(C)C)C1CCCCC1)C(C)(C)C)C(=O)C(=O)NC1CC1 [Compound 5] |  |  | 250 to 1000 | 100 to 250
CCC[C@H](NC(=O)[C@@H]1C[C@@H]2CCCC[C@@H]2N1C(=O)[C@@H](NC(=O)[C@@H](NC(=O)C(=O)NCC(C)C)C1CCCCC1)C(C)(C)C)C(=O)C(=O)NC1CC1 [Compound 6] |  |  | 250 to 1000 | 100 to 250
CCC[C@H](NC(=O)[C@@H]1C[C@@H]2CCCC[C@@H]2N1C(=O)[C@@H](NC(=O)[C@@H](NC(=O)C(=O)Nc1cc(C)on1)C1CCCCC1)C(C)(C)C)C(=O)C(=O)NC1CC1 [Compound 7] |  |  | 250 to 1000 | 100 to 250
CCC[C@H](NC(=O)[C@@H]1C[C@@H]2CCCC[C@@H]2N1C(=O)[C@@H](NC(=O)[C@@H](NC(=O)C(=O)NC1CCCCC1)C1CCCCC1)C(C)(C)C)C(=O)C(=O)NC1CC1 [Compound 8] |  |  | 250 to 1000 | 100 to 250
CCC[C@H](NC(=O)[C@@H]1C[C@@H]2CCCC[C@@H]2N1C(=O)[C@@H](NC(=O)[C@@H](NC(=O)C(=O)NC1CCCC1)C1CCCCC1)C(C)(C)C)C(=O)C(=O)NC1CC1 [Compound 9] |  |  | 250 to 1000 | 250 to 1000
CCC[C@H](NC(=O)C1C[C@@H](Oc2ccc(Cl)cn2)CN1C(=O)[C@@H](NC(=O)[C@@H](NC(=O)C(=O)NC1CC1)C1CCCCC1)C(C)(C)C)C(=O)C(=O)NC1CC1 (stereo partly drawn) [Compound 10] |  |  | < 100 | 100 to 250
CCC[C@H](NC(=O)[C@@H]1C[C@@H](Oc2ccc(Cl)cn2)CN1C(=O)[C@@H](NC(=O)[C@@H](NC(=O)C(=O)NCc1ccccc1)C1CCCCC1)C(C)(C)C)C(=O)C(=O)NC1CC1 [Compound 11] |  |  | < 100 | 100 to 250
CCC[C@H](NC(=O)[C@@H]1C[C@@H](Oc2ccc(Cl)cn2)CN1C(=O)[C@@H](NC(=O)[C@@H](NC(=O)C(=O)NCC(C)C)C1CCCCC1)C(C)(C)C)C(=O)C(=O)NC1CC1 [Compound 12] |  |  | < 100 | 100 to 250
